Measured values from US10874745B2, “Antimicrobial peptides and methods of treating gram-negative pathogens: polar and non-polar face analogs” (priority 2017, dated 2020).
Values after ≈ are worked out from the molar mass of the structure shown.

Columns and labels:
[1] = test system: human red blood cells; experiment: Hemolytic activity; format: cell-based; details: 18 h
Procedure: Hemoglobin release was determined spectrophotometrically at 570 nm. […] […] […] With the peptides used in this study the inventors used the HC30/MIC ratio value to calculate the therapeutic index.

[2] = test system: A. baumannii strain 649; format: cell-based, Acinetobacter baumannii
Excerpt: A critical component to the systemic use of AMPs to treat bacterial infections is the extent of AMP binding to serum proteins. In addition, since only the unbound AMP is available to interact with the therapeutic target, the extent of serum binding can have significant effects on efficacy. […] This assay estimates the in vivo bioavailability of the AMPs. […] An increase in MIC in serum is attributed to inhibition of antimicrobial activity due to serum protein binding.

| Structure (SMILES) | Hemolytic activity HC30 [1] | MIC, 25% human serum [2] | MIC, No serum [2] |
| --- | --- | --- | --- |
| CC(=O)N[C@H](C)C(=O)N[C@H](CC(C)C)C(=O)N[C@H](CCCCN)C(=O)N[C@H](CO)C(=O)N[C@H](CC(C)C)C(=O)N[C@H](CC(C)C)C(=O)N[C@H](CCCCN)C(=O)N[C@@H](C(=O)N[C@H](CC(C)C)C(=O)N[C@H](CO)C(=O)N[C@H](CCCCN)C(=O)N[C@H](C)C(=O)N[C@H](CCCCN)C(=O)N[C@H](C)C(=O)N[C@H](C)C(=O)N[C@H](CCCCN)C(=O)N[C@H](CC(C)C)C(=O)N[C@H](CCCCN)C(=O)N[C@@H](C(=O)N[C@H](CC(C)C)C(=O)N[C@H](CC(C)C)C(=O)N[C@H](CCCCN)C(=O)N[C@H](C)C(=O)N[C@H](CC(C)C)C(=O)N[C@H](CO)C(=O)N[C@H](CCCCN)C(N)=O)[C@H](C)O)[C@H](C)O [Peptide D33] | 89 µM | 0.7 µM (≈ 1.97 µg/mL) | 0.1 µM (≈ 0.281 µg/mL) |
| CC(=O)N[C@H](C)C(=O)N[C@H](CC(C)C)C(=O)N[C@H](CCCCN)C(=O)N[C@H](CO)C(=O)N[C@H](CC(C)C)C(=O)N[C@H](CC(C)C)C(=O)N[C@H](CCCCN)C(=O)N[C@@H](C(=O)N[C@H](CC(C)C)C(=O)N[C@H](CO)C(=O)N[C@H](C)C(=O)N[C@H](C)C(=O)N[C@H](CCCCN)C(=O)N[C@H](CCCCN)C(=O)N[C@H](CCCCN)C(=O)N[C@H](CCCCN)C(=O)N[C@H](CC(C)C)C(=O)N[C@H](C)C(=O)N[C@@H](C(=O)N[C@H](CC(C)C)C(=O)N[C@H](CC(C)C)C(=O)N[C@H](CCCCN)C(=O)N[C@H](C)C(=O)N[C@H](CC(C)C)C(=O)N[C@H](CO)C(=O)N[C@H](CCCCN)C(N)=O)[C@H](C)O)[C@H](C)O [Peptide D34] | 126 µM | 1.4 µM (≈ 3.93 µg/mL) | 0.2 µM (≈ 0.562 µg/mL) |
| CC(=O)N[C@H](C)C(=O)N[C@H](CC(C)C)C(=O)N[C@H](CCCCN)C(=O)N[C@H](CO)C(=O)N[C@H](CC(C)C)C(=O)N[C@H](CC(C)C)C(=O)N[C@H](C)C(=O)N[C@@H](C(=O)N[C@H](CC(C)C)C(=O)N[C@H](CO)C(=O)N[C@H](CCCCN)C(=O)N[C@H](C)C(=O)N[C@H](CCCCN)C(=O)N[C@H](CCCCN)C(=O)N[C@H](CCCCN)C(=O)N[C@H](CCCCN)C(=O)N[C@H](CC(C)C)C(=O)N[C@H](CCCCN)C(=O)N[C@@H](C(=O)N[C@H](CC(C)C)C(=O)N[C@H](CC(C)C)C(=O)N[C@H](C)C(=O)N[C@H](C)C(=O)N[C@H](CC(C)C)C(=O)N[C@H](CO)C(=O)N[C@H](CCCCN)C(N)=O)[C@H](C)O)[C@H](C)O [Peptide D35] | 30 µM | 1.4 µM (≈ 3.93 µg/mL) | 0.4 µM (≈ 1.12 µg/mL) |
| CC(=O)N[C@H](C)C(=O)N[C@H](CC(C)C)C(=O)N[C@H](C)C(=O)N[C@H](CO)C(=O)N[C@H](CC(C)C)C(=O)N[C@H](CC(C)C)C(=O)N[C@H](CCCCN)C(=O)N[C@@H](C(=O)N[C@H](CC(C)C)C(=O)N[C@H](CO)C(=O)N[C@H](CCCCN)C(=O)N[C@H](C)C(=O)N[C@H](CCCCN)C(=O)N[C@H](CCCCN)C(=O)N[C@H](CCCCN)C(=O)N[C@H](CCCCN)C(=O)N[C@H](CC(C)C)C(=O)N[C@H](CCCCN)C(=O)N[C@@H](C(=O)N[C@H](CC(C)C)C(=O)N[C@H](CC(C)C)C(=O)N[C@H](CCCCN)C(=O)N[C@H](C)C(=O)N[C@H](CC(C)C)C(=O)N[C@H](CO)C(=O)N[C@H](C)C(N)=O)[C@H](C)O)[C@H](C)O [Peptide D36] | 61 µM | 0.7 µM (≈ 1.97 µg/mL) | 0.4 µM (≈ 1.12 µg/mL) |
| CC(=O)N[C@H](C)C(=O)N[C@H](CC(C)C)C(=O)N[C@H](CCCCN)C(=O)N[C@H](CO)C(=O)N[C@H](CC(C)C)C(=O)N[C@H](CC(C)C)C(=O)N[C@H](CCCCN)C(=O)N[C@@H](C(=O)N[C@H](CC(C)C)C(=O)N[C@H](CO)C(=O)N[C@H](CCCCN)C(=O)N[C@H](C)C(=O)N[C@H](C)C(=O)N[C@H](C)C(=O)N[C@H](C)C(=O)N[C@H](C)C(=O)N[C@H](CC(C)C)C(=O)N[C@H](CCCCN)C(=O)N[C@@H](C(=O)N[C@H](CC(C)C)C(=O)N[C@H](CC(C)C)C(=O)N[C@H](CCCCN)C(=O)N[C@H](C)C(=O)N[C@H](CC(C)C)C(=O)N[C@H](CO)C(=O)N[C@H](CCCCN)C(N)=O)[C@H](C)O)[C@H](C)O [Peptide D37] | 2.6 µM | >92.8 µM | 2.9 µM (≈ 7.81 µg/mL) |
| CC(=O)N[C@H](C)C(=O)N[C@H](CC(C)C)C(=O)N[C@H](CCCCN)C(=O)N[C@H](CO)C(=O)N[C@H](CC(C)C)C(=O)N[C@H](CC(C)C)C(=O)N[C@H](CCCCN)C(=O)N[C@@H](C(=O)N[C@H](CC(C)C)C(=O)N[C@H](CO)C(=O)N[C@H](C)C(=O)N[C@H](C)C(=O)N[C@H](C)C(=O)N[C@H](CCCCN)C(=O)N[C@H](CCCCN)C(=O)N[C@H](C)C(=O)N[C@H](CC(C)C)C(=O)N[C@H](C)C(=O)N[C@@H](C(=O)N[C@H](CC(C)C)C(=O)N[C@H](CC(C)C)C(=O)N[C@H](CCCCN)C(=O)N[C@H](C)C(=O)N[C@H](CC(C)C)C(=O)N[C@H](CO)C(=O)N[C@H](CCCCN)C(N)=O)[C@H](C)O)[C@H](C)O [Peptide D38] | 2.8 µM | >92.8 µM | 0.7 µM (≈ 1.89 µg/mL) |
| CC(=O)N[C@H](C)C(=O)N[C@H](CC(C)C)C(=O)N[C@H](CCCCN)C(=O)N[C@H](CO)C(=O)N[C@H](CC(C)C)C(=O)N[C@H](CC(C)C)C(=O)N[C@H](C)C(=O)N[C@@H](C(=O)N[C@H](CC(C)C)C(=O)N[C@H](CO)C(=O)N[C@H](CCCCN)C(=O)N[C@H](C)C(=O)N[C@H](C)C(=O)N[C@H](CCCCN)C(=O)N[C@H](CCCCN)C(=O)N[C@H](C)C(=O)N[C@H](CC(C)C)C(=O)N[C@H](CCCCN)C(=O)N[C@@H](C(=O)N[C@H](CC(C)C)C(=O)N[C@H](CC(C)C)C(=O)N[C@H](C)C(=O)N[C@H](C)C(=O)N[C@H](CC(C)C)C(=O)N[C@H](CO)C(=O)N[C@H](CCCCN)C(N)=O)[C@H](C)O)[C@H](C)O [Peptide D39] | 2.8 µM | >92.8 µM | 1.4 µM (≈ 3.77 µg/mL) |
| CC(=O)N[C@H](C)C(=O)N[C@H](CC(C)C)C(=O)N[C@H](C)C(=O)N[C@H](CO)C(=O)N[C@H](CC(C)C)C(=O)N[C@H](CC(C)C)C(=O)N[C@H](CCCCN)C(=O)N[C@@H](C(=O)N[C@H](CC(C)C)C(=O)N[C@H](CO)C(=O)N[C@H](CCCCN)C(=O)N[C@H](C)C(=O)N[C@H](C)C(=O)N[C@H](CCCCN)C(=O)N[C@H](CCCCN)C(=O)N[C@H](C)C(=O)N[C@H](CC(C)C)C(=O)N[C@H](CCCCN)C(=O)N[C@@H](C(=O)N[C@H](CC(C)C)C(=O)N[C@H](CC(C)C)C(=O)N[C@H](CCCCN)C(=O)N[C@H](C)C(=O)N[C@H](CC(C)C)C(=O)N[C@H](CO)C(=O)N[C@H](C)C(N)=O)[C@H](C)O)[C@H](C)O [Peptide D40] | 2.8 µM | >92.8 µM | 2.9 µM (≈ 7.81 µg/mL) |
